Test results taken from publication PMC4138103 (PLoS ONE, 2014).
Read-outs that look alike come from different tables or passages of the source.

Test system: Sprague-Dawley rats
Experiment: Bone geometry and densitometry (pQCT of tibia)
Type: in vivo, Rattus norvegicus
Set-up: key to Dose response: Densitometry, diaphysis, Cortical area / Dose response: Densitometry, metaphysis, Trabecular area: D: significant dose response (for results, see Table 2); T: significant trend
Settings: for CED, Cortical area of diaphysis / CED-L, Cortical area of diaphysis: M; for Emax: Rattus norvegicus
Method: Hind limbs were collected and frozen at −20°C. Dissected right tibias were cleaned from soft tissue and stored in Ringer solution at −20°C until analysis. The length of each bone was measured using an electronic sliding caliper to the nearest 0.01 mm (IP65, Sylvac SA, Crissier, Switzerland). […] The thresholds for defining trabecular bone were 280 and 400 mg/cm^3, while cortical bone was defined above a threshold of 710 mg/cm^3. The voxel size was 0.07 mm.
Data were also analyzed using the BMD method, which is based on dose-response modeling of the full data set using a nested family of exponential and Hill models. The analyses were done on data of males and females combined, using sex as a covariate. […] In that case, different Critical Effect Doses (CEDs) and CEDs at the lowest bound of the confidence interval (CED-L) were generated for each sex. If no difference between sexes is detected, a CED and CED-Ls for the combined data is generated. However, this was also done if the curve fits are close, and separate analyses for males and females were then performed manually. CEDs and CED-Ls were calculated at the predefined Critical Effect Size (CES) of 5% (EFSA standard) or 10%.

[1] = F, CES 5%, model E2, adipose tissue concentration based
[2] = F, CES 10%, model E2, adipose tissue concentration based
[3] = CES 5%, model E2, adipose tissue concentration based
[4] = CES 10%, model E2, adipose tissue concentration based
[5] = females, CES 5%, total dose based
[6] = males, CES 5%, total dose based
[7] = tibia, females, total dose 3 mg/kg bw
[8] = tibia, females, total dose 10 mg/kg bw
[9] = tibia, females, total dose 30 mg/kg bw
[10] = tibia, females, total dose 100 mg/kg bw
[11] = tibia, females, total dose 300 mg/kg bw
[12] = tibia, females, total dose 1000 mg/kg bw
[13] = tibia, females, total dose 1700 mg/kg bw
[14] = tibia, males, total dose 3 mg/kg bw
[15] = tibia, males, total dose 10 mg/kg bw
[16] = tibia, males, total dose 30 mg/kg bw
[17] = tibia, males, total dose 100 mg/kg bw
[18] = tibia, males, total dose 300 mg/kg bw
[19] = tibia, males, total dose 1000 mg/kg bw
[20] = tibia, males, total dose 1700 mg/kg bw

Clc1cc(Cl)c(-c2cc(Cl)c(Cl)c(Cl)c2Cl)cc1Cl [PCB 180, 2,2′,3′,4,4′,5,5′-heptachlorobiphenyl]
CED, Trabecular area of metaphysis [1]: 6230 µg/g lipid
CED-L, Trabecular area of metaphysis [1]: 3714 µg/g lipid
CED, Trabecular area of metaphysis [2]: 12200 µg/g lipid
CED-L, Trabecular area of metaphysis [2]: 7255 µg/g lipid
CED, Cortical area of diaphysis [3]: 5930 µg/g lipid
CED-L, Cortical area of diaphysis [3]: 3506 µg/g lipid
CED, Cortical area of diaphysis [4]: 12200 µg/g lipid
CED-L, Cortical area of diaphysis [4]: 7202 µg/g lipid
Emax (F, model E2, controls vs high dose according to the fitted model, read-out: Maximum response, Trabecular area of metaphysis): 9.25%
Emax (females, controls vs high dose, fitted model, read-out: Trabecular area of metaphysis, Maximum response): 8.2%
Emax (males, controls vs high dose, fitted model, read-out: Cortical area of diaphysis, Maximum response): -6.1%
Emax (model E2, controls vs high dose according to the fitted model, read-out: Maximum response, Cortical area of diaphysis): -6.19%
Trabecular area of metaphysis, CED [5]: 1040 mg/kg bw
Trabecular area of metaphysis, CED-L [5]: 602 mg/kg bw
Trabecular area of metaphysis, CED (females, adipose tissue concentration based): 6230 µg/g lipid
Trabecular area of metaphysis, Maximum response (females, controls vs high dose, fitted model): 8.30%
Cortical area of diaphysis, CED [6]: 1380 mg/kg bw
Cortical area of diaphysis, CED-L [6]: 820 mg/kg bw
Cortical area of tibial diaphysis, CED (males, adipose tissue concentration based): 5930 µg/g lipid
Densitometry, diaphysis: Cortical area [7]: 3.25 mm2
Densitometry, diaphysis: Cortical density [7]: 1315 mg/cm3
Densitometry, diaphysis: Cortical thickness [7]: 0.49 mm
Densitometry, diaphysis: Endosteal circumference [7]: 5.06 mm
Densitometry, diaphysis: Periosteal circumference [7]: 8.15 mm
Densitometry, metaphysis: Total density [7]: 570 mg/cm3
Densitometry, metaphysis: Trabecular area [7]: 5.33 mm2
Densitometry, metaphysis: Trabecular density [7]: 195 mg/cm3
Densitometry, diaphysis: Cortical area [8]: 3.22 mm2
Densitometry, diaphysis: Cortical density [8]: 1312 mg/cm3
Densitometry, diaphysis: Cortical thickness [8]: 0.49 mm
Densitometry, diaphysis: Endosteal circumference [8]: 5.06 mm
Densitometry, diaphysis: Periosteal circumference [8]: 8.12 mm
Densitometry, metaphysis: Total density [8]: 571 mg/cm3
Densitometry, metaphysis: Trabecular area [8]: 5.37 mm2
Densitometry, metaphysis: Trabecular density [8]: 199 mg/cm3
Densitometry, diaphysis: Cortical area [9]: 3.23 mm2
Densitometry, diaphysis: Cortical density [9]: 1311 mg/cm3
Densitometry, diaphysis: Cortical thickness [9]: 0.49 mm
Densitometry, diaphysis: Endosteal circumference [9]: 5.08 mm
Densitometry, diaphysis: Periosteal circumference [9]: 8.14 mm
Densitometry, metaphysis: Total density [9]: 569 mg/cm3
Densitometry, metaphysis: Trabecular area [9]: 5.52 mm2
Densitometry, metaphysis: Trabecular density [9]: 211 mg/cm3
Densitometry, diaphysis: Cortical area [10]: 3.21 mm2
Densitometry, diaphysis: Cortical density [10]: 1307 mg/cm3
Densitometry, diaphysis: Cortical thickness [10]: 0.49 mm
Densitometry, diaphysis: Endosteal circumference [10]: 4.95 mm
Densitometry, diaphysis: Periosteal circumference [10]: 8.06 mm
Densitometry, metaphysis: Total density [10]: 586 mg/cm3
Densitometry, metaphysis: Trabecular area [10]: 4.99 mm2
Densitometry, metaphysis: Trabecular density [10]: 209 mg/cm3
Densitometry, diaphysis: Cortical area [11]: 3.26 mm2
Densitometry, diaphysis: Cortical density [11]: 1310 mg/cm3
Densitometry, diaphysis: Cortical thickness [11]: 0.50 mm
Densitometry, diaphysis: Endosteal circumference [11]: 5.01 mm
Densitometry, diaphysis: Periosteal circumference [11]: 8.13 mm
Densitometry, metaphysis: Total density [11]: 581 mg/cm3
Densitometry, metaphysis: Trabecular area [11]: 5.25 mm2
Densitometry, metaphysis: Trabecular density [11]: 214 mg/cm3
Densitometry, diaphysis: Cortical area [12]: 3.23 mm2
Densitometry, diaphysis: Cortical density [12]: 1309 mg/cm3
Densitometry, diaphysis: Cortical thickness [12]: 0.49 mm
Densitometry, diaphysis: Endosteal circumference [12]: 4.97 mm
Densitometry, diaphysis: Periosteal circumference [12]: 8.08 mm
Densitometry, metaphysis: Total density [12]: 574 mg/cm3
Densitometry, metaphysis: Trabecular area [12]: 5.41 mm2
Densitometry, metaphysis: Trabecular density [12]: 209 mg/cm3
Densitometry, diaphysis: Cortical area [13]: 3.10 mm2
Densitometry, diaphysis: Cortical density [13]: 1307 mg/cm3
Densitometry, diaphysis: Cortical thickness [13]: 0.48 mm
Densitometry, diaphysis: Endosteal circumference [13]: 5.01 mm
Densitometry, diaphysis: Periosteal circumference [13]: 8.00 mm
Densitometry, metaphysis: Total density [13]: 562 mg/cm3
Densitometry, metaphysis: Trabecular area [13]: 5.84 mm2
Densitometry, metaphysis: Trabecular density [13]: 221 mg/cm3
Dose response: Densitometry, metaphysis, Trabecular area (tibia, females, total doses 0-1700 mg/kg bw): D
Densitometry, diaphysis: Cortical area [14]: 4.04 mm2
Densitometry, diaphysis: Cortical density [14]: 1321 mg/cm3
Densitometry, diaphysis: Cortical thickness [14]: 0.56 mm
Densitometry, diaphysis: Endosteal circumference [14]: 5.47 mm
Densitometry, diaphysis: Periosteal circumference [14]: 8.98 mm
Densitometry, metaphysis: Total density [14]: 493 mg/cm3
Densitometry, metaphysis: Trabecular area [14]: 8.42 mm2
Densitometry, metaphysis: Trabecular density [14]: 174 mg/cm3
Densitometry, diaphysis: Cortical area [15]: 3.95 mm2
Densitometry, diaphysis: Cortical density [15]: 1314 mg/cm3
Densitometry, diaphysis: Cortical thickness [15]: 0.54 mm
Densitometry, diaphysis: Endosteal circumference [15]: 5.55 mm
Densitometry, diaphysis: Periosteal circumference [15]: 8.97 mm
Densitometry, metaphysis: Total density [15]: 465 mg/cm3
Densitometry, metaphysis: Trabecular area [15]: 8.96 mm2
Densitometry, metaphysis: Trabecular density [15]: 139 mg/cm3
Densitometry, diaphysis: Cortical area [16]: 4.08 mm2
Densitometry, diaphysis: Cortical density [16]: 1316 mg/cm3
Densitometry, diaphysis: Cortical thickness [16]: 0.56 mm
Densitometry, diaphysis: Endosteal circumference [16]: 5.58 mm
Densitometry, diaphysis: Periosteal circumference [16]: 9.08 mm
Densitometry, metaphysis: Total density [16]: 485 mg/cm3
Densitometry, metaphysis: Trabecular area [16]: 8.63 mm2
Densitometry, metaphysis: Trabecular density [16]: 165 mg/cm3
Densitometry, diaphysis: Cortical area [17]: 4.06 mm2
Densitometry, diaphysis: Cortical density [17]: 1300 mg/cm3
Densitometry, diaphysis: Cortical thickness [17]: 0.55 mm
Densitometry, diaphysis: Endosteal circumference [17]: 5.70 mm
Densitometry, diaphysis: Periosteal circumference [17]: 9.14 mm
Densitometry, metaphysis: Total density [17]: 458 mg/cm3
Densitometry, metaphysis: Trabecular area [17]: 9.57 mm2
Densitometry, metaphysis: Trabecular density [17]: 159 mg/cm3
Densitometry, diaphysis: Cortical area [18]: 4.06 mm2
Densitometry, diaphysis: Cortical density [18]: 1313 mg/cm3
Densitometry, diaphysis: Cortical thickness [18]: 0.56 mm
Densitometry, diaphysis: Endosteal circumference [18]: 5.53 mm
Densitometry, diaphysis: Periosteal circumference [18]: 9.03 mm
Densitometry, metaphysis: Total density [18]: 474 mg/cm3
Densitometry, metaphysis: Trabecular area [18]: 8.85 mm2
Densitometry, metaphysis: Trabecular density [18]: 150 mg/cm3
Densitometry, diaphysis: Cortical area [19]: 3.88 mm2
Densitometry, diaphysis: Cortical density [19]: 1306 mg/cm3
Densitometry, diaphysis: Cortical thickness [19]: 0.54 mm
Densitometry, diaphysis: Endosteal circumference [19]: 5.51 mm
Densitometry, diaphysis: Periosteal circumference [19]: 8.90 mm
Densitometry, metaphysis: Total density [19]: 468 mg/cm3
Densitometry, metaphysis: Trabecular area [19]: 8.69 mm2
Densitometry, metaphysis: Trabecular density [19]: 154 mg/cm3
Densitometry, diaphysis: Cortical area [20]: 3.80 mm2
Densitometry, diaphysis: Cortical density [20]: 1315 mg/cm3
Densitometry, diaphysis: Cortical thickness [20]: 0.53 mm
Densitometry, diaphysis: Endosteal circumference [20]: 5.54 mm
Densitometry, diaphysis: Periosteal circumference [20]: 8.86 mm
Densitometry, metaphysis: Total density [20]: 483 mg/cm3
Densitometry, metaphysis: Trabecular area [20]: 8.64 mm2
Densitometry, metaphysis: Trabecular density [20]: 164 mg/cm3
Dose response: Densitometry, diaphysis, Cortical area (tibia, males, total doses 0-1700 mg/kg bw): D
